Data: US20140235630A1, “COMPOSITIONS AND METHODS FOR THE TREATMENT OF PROLIFERATIVE DISEASES” (Beth Israel Deaconess Medical Center, Inc., priority 2011, published 2014)

Legend:
[1] = system: mouse lung tumors with transgenic H1047R mutant of PIK3CA; details: within two days; cited from earlier work
blood vessels in tumors = details: in vivo; cited from earlier work
HCC1937 cells = assay: DNA damage response immunoblots with or without ionizing radiation (10 Gy); type: cell-based, human
Experimental: FIG. 5A are immunoblots showing the effects of Compound A, ATM inhibitor KU-55933, and their combination on the DNA damage response. HCC1937 were treated for 18 hours with Compound A at 2.5 μM, KU55933 at 10 μM, or their combination, subjected to ionizing irradiation with 10 Gy or mock, lysed 6 hours later, and subjected to immunoblotting. […] Immunoblots were performed using the Nupage System (Invitrogen). The protein concentration was determined using Bradford reagent (Biorad). A total of 20 μg of protein were loaded, except for PAR, Phospho ATM and Phospho DNA-PK/PRKDC western blots, where 40 μg were loaded. Tumor tissue lysates were prepared similarly with the exception of tissue homogenization by using an electric homogenizer for 30 secs after addition of the lysis buffer. Primary antibodies used for western blotting were total AKT (9272), Cleaved […] 3 (9661), total ERK (4695), Phospho AKT Ser473 (4058), Phospho ERK Thr202/Tyr204 (9106), Phospho-Histone H2AX Ser139 (2577), PTEN (9559) from Cell Signaling. Phospho ATM […] (2152-1), Phospho DNA-PK/PRKDC […] (3892-1) from Epitomics, Inc. CD31 (ab28364), Actin (ab6276), INPP4B (ab81269) from Abcam; pADPr (sc56198) from Santacruz Biotechnology; and Ki-67 (RM-9106) was purchased from Thermo Scientific.

SMILES | FDG-PET signal [1] | sprouting of new blood vessels in tumors (blood vessels in tumors) | H2AX phosphorylation in response to ionizing radiation (HCC1937 cells; 18 hours pre-treatment, 10 Gy, lysed 6 hours later) | auto-phosphorylation of ATM (HCC1937 cells; KU-55933 10 μM, 18 hours)
Cn1c(=O)n(-c2ccc(C(C)(C)C#N)cc2)c2c3cc(-c4cnc5ccccc5c4)ccc3ncc21 [BEZ235] | caused a reduction in the FDG-PET signal | inhibits the sprouting of new blood vessels | – | –
O=c1cc(-c2cccc3c2Sc2ccccc2S3)oc(N2CCOCC2)c1 [KU-55933, reference compound] | – | – | prevented the increase | decrease
